In general, melting point refers to the temperature, or range, at which the solid turns liquid.

Experimental findings from patent publication US20100240754A1, “UNSATURATED FATTY AMINO ACID DERIVATIVES AND USE THEREOF IN DERMAL COSMETOLOGY” (Pierre Fabre Demo-Cosmetique, priority 2007, published 2010) are described below.

“Also recorded” adds a separate entry of the source. Like-named read-outs stand apart in the source and are kept apart here.

One data set has as its system fibroblast line L929. Nature of the data set: Test of TBARS: lipid peroxidation after H2O2-Fe2+/Fe3+ stress. Particulars: for inhibition at 20 pg/mL: Mus musculus, Dose = 0.02 ng/mL, L929, 16 hours pretreatment, H2O2-Fe2+/Fe3+ (200 μM-1 mM) 1 hour, TBARS, read-out: % of protection of membrane lipids, Average; for antiradical activity and protection of cell membranes, in words: L929, TBARS test, conclusion from Table 4. The data set is classed as cell-based, murine. The source says: In order to evaluate membrane alteration, we have measured lipid peroxidation by an assay in vitro of the complexes between lipid oxidation products and thiobarbituric acid. These complexes are called TBARS (Thiobarbituric Acid Reactive Substances) and give the name to the test: Test of TBARS.
In order to mimic a chemical oxidative stress, we treated a fibroblast line, L929, with a complex composed of hydrogen peroxide (H2O2) and of iron (Fe^2+/Fe^3+) thereby regenerating Fenton's reaction, source of FORs and more particularly of hydroxyl radicals)(OH^0) (D. A. Vessey et al., 1992):
The products were evaluated on the murine fibroblast line L929. The cells were pretreated with the different concentrations of products for 16 hours and were then stimulated with the complex H2O2—Fe^2+/Fe^3+ (200 μM-1 mM) for 1 hour.
Mother solutions: 100 mg/mL, ethanol, 4° C. Final solutions: 0.02 ng/mL.
Peroxidation of membrane lipids is analyzed by measuring the TBARS (Procedure Ref. PL No. 2, according to Morlière et al., 1991).
In an acid medium, at 95° C., complexes noted as TBARS for Thio Barbituric Acid Reactive Substance are formed, between the lipid oxidation products (malonic dialdehyde or MDA) and thiobarbituric acid (TBA) which may be assayed by fluorescence relatively to a standard range with MDA. The dosage of the TBARS is then expressed in pmol/μg of proteins. The proteins and the TBARS are assayed in the intracellular medium.
From the calculation of the TBARS in pmol/μg of proteins, we calculated the protective efficiency of different products against oxidation of membrane lipids.
Seven independent experiments were conducted. During these experiments, various compounds were evaluated (with the test, it is not possible to evaluate more than 10 molecules at the same time). The compounds which were evaluated several times were selected according to the results obtained in the other test also measuring antiradical activity (test for assaying oxygen active species, OASes).

For another data set, the system named is B16-F10 line. The experiment in a line: Synthesis of melanin, colorimetric assay, basal and after alpha MSH stimulation. In kind it is cell-based, murine. Particulars: B16-F10; for inhibition at 30 µg/mL: Mus musculus, 30 μg/mL. The procedure:
6.1) The modulating effect of unsaturated fatty amino-acid derivatives on melanogenesis was analyzed. For this, a measurement of the synthesis of melanin by a colorimetric assay is carried out on a cell line of murine melanomas: the B16-F10 line.
The effect of the products is investigated in a basal situation and after stimulating melanogenesis by a MSH for determining the depigmenting power.
The level of extracellular and intracellular melanin is then measured by spectrophotometry at a wave length of 405 nm according to the procedure (Meun, Y. J. et al.). The amount of pigment is determined by a standard range of melanin and by analysis on the Microwin software package (Berthold Biotechnologies). An assay of total proteins is conducted for samples of intracellular melanin by the BCA-Copper method at 540 nm. The standard range is produced with a standard protein, BSA (Bovine Albumin Serum).

Another data set has as its system production of IL8. Nature of the data set: Production of interleukin 8 induced in keratinocytes by PMA and calcium ionophore A23187 (ELISA). The data set is classed as cell-based. Particulars: Keratinocyte; keratinocytes stimulated with PMA + A23187; read-out: effective dose 50 (DE50), production of IL8. A general note: ELISA stands for enzyme-linked immunosorbent assay.

With `Cl.NCCC/C=C/C(=O)O` [Compound No. 1, (E)-6-amino-hex-2-enoic acid], the inhibition at 20 pg/mL in the data set on fibroblast line L929 amounted to 13.4%.

Turning to `NCCC/C=C(/F)C(=O)O` [Compound No. 2, (E)-6-amino-2-fluoro-hex-2-enoic acid], the inhibition at 20 pg/mL with fibroblast line L929 stood at 7.63%.

On to `Cl.NCCCC/C=C/C(=O)O` [Compound No. 4, (E)-7-amino-hept-2-enoic acid], for which the inhibition at 20 pg/mL in the data set with fibroblast line L929 turned out to be 8.75%.

Consider `NCCCCC=C(F)C(=O)O` [Compound No. 5, (Z+E)-7-amino-2-fluoro-hept-2-enoic acid], for which, in the data set on fibroblast line L929, the “antiradical activity and protection of cell membranes, in words” value (“antiradical activity and protection” for short) is given as “significant antiradical activity”; the inhibition at 20 pg/mL amounted to 36.3%. Besides, the “pigmenting effect, in words” value in the data set with B16-F10 line was “weaker than that of molecule No. 6”.

`Cl.NCCCCC/C=C/C(=O)O` [Compound No. 7, (E)-8-amino-oct-2-enoic acid]: in the data set on fibroblast line L929, the “antiradical activity and protection” value is “significant antiradical activity; also recorded: most significant antiradical activity”; the inhibition at 20 pg/mL was determined as 48.3%.

`Cl.NCCCCCC/C=C/C(=O)O` [Compound No. 8, (E)-9-amino-non-2-enoic acid] showed a melting point of 104 °C. In the data set with fibroblast line L929, the “antiradical activity and protection” value was “significant antiradical activity; also recorded: most significant antiradical activity”; the inhibition at 20 pg/mL turned out to be 56.6%.

On to `Cl.NCCCCCCC=C(F)C(=O)O` [Compound No. 9, 9-amino-2-fluoro-non-2-enoic acid], for which the melting point came out at 120 °C. In addition, in the data set with fibroblast line L929, the “antiradical activity and protection” value is reported as “significant antiradical activity”; the inhibition at 20 pg/mL is 27.5%.

In the case of `Cl.NCCCCCCCCCCCC=C(F)C(=O)O` [Compound No. 10, 14-amino-2-fluoro-tetradec-2-enoic acid], the melting point is 148.5 °C. Also, in the data set with fibroblast line L929, the “antiradical activity and protection” value is on record as “significant antiradical activity”; the inhibition at 20 pg/mL worked out at 23.9%.

The compound `Cl.NCCCCCCCCCCC/C=C/C(=O)O` [Compound No. 11, (E)-14-amino-tetradec-2-enoic acid] came in with a melting point of 153 °C. Further, the inhibition at 20 pg/mL in the data set with fibroblast line L929 was -26.3%. Moreover, the EC50 with production of IL8 came out at 11 µg/mL. Also, in the data set with B16-F10 line (10 μg/mL), the “effect on the synthesis of melanin, in words” value was “without any effect”. In addition, the inhibition at 30 µg/mL in the data set with B16-F10 line (read-out: inhibition of the amount of extra-cellular melanin) was determined as 30%. In the data set on B16-F10 line (read-out: inhibition of the amount of intra-cellular melanin), the inhibition at 30 µg/mL was roughly 45%.

Take `NCCC/C=C(\F)C(=O)O` [compound 3, (Z)-6-amino-2-fluoro-hex-2-enoic acid]: the inhibition at 20 pg/mL in the data set on fibroblast line L929 was -4%.

Turning to `NCCCC/C=C(\F)C(=O)O` [compound 6, (Z)-7-amino-2-fluoro-hept-2-enoic acid], in the data set with fibroblast line L929, the “antiradical activity and protection” value was “significant antiradical activity; also recorded: most significant antiradical activity”; the inhibition at 20 pg/mL came to 49.8%. Also, in the data set on B16-F10 line (3, 10 and 30 μg/mL), the “increase of the amount of intracellular melanin” value is “about 100%”.
